Experimental data as given in patent US20130156932A1, “Method of increasing the milk and/or meat quantity of silage-fed animals” (BASF SE, priority 2007, published 2013).

Key:
Format in all cases: in vivo, Zea mays (maize)
[1] = test system: corn hybrid varieties; assay: Field trial Wisconsin 2008 with eight corn hybrids: calculated milk production per ton of harvested biomass
Method: (§1) Field trials were conducted as strip trials in farm fields in 2006 and 2008. A part of the field was treated with pyraclostrobin applied as Headline® whereas another part was left untreated. Headline® was applied at tassel emergence with 0.44 L/ha (110 g pyraclostrobin per ha) by aerial or ground application with a high clearance sprayer. Total spray volume was 93.5 to 187 L/ha for ground application and 18.7 to 46.7 L/ha for aerial application, respectively. Water was used as a carrier to prepare the spray mixture.
(§2) Trials were harvested using a commercial forage harvester when the corn crop reached a dry matter content of about 30 to 40%. The treated and untreated area of the field was harvested separately to gain total biomass yield (ton/acre). Subsequently, the harvested plant material was used for producing silage.
(§3) Forage samples from the harvested plants were taken from both the treated and untreated areas of the field. Samples were taken from the harvested material in the forage wagon following chopping with the commercial harvester. Multiple forage samples were taken for each of both treatments manually during harvesting in each of the trials, mixed in a larger container, and a subsample of 1.3 to 2.25 kg was taken. The subsamples were placed in plastic bags, sealed, cooled, and shipped immediately to Agsource Soil and Forage Laboratory, 106 North Cecil Street, Bonduel Wis. […]

[2] = test system: corn; assay: Corn silage strip trials Wisconsin 2006: NIRS forage quality and MILK 2006 calculated milk production
Method: as §1, §2
(§4) Forage samples from the harvested plants were taken from both the treated and untreated areas of the field. Samples were taken from the harvested material in the forage wagon following chopping with the commercial harvester. Multiple forage samples were taken for each of both treatments manually during harvesting in each of the trials, mixed in a larger container, and a subsample of 1.3 to 2.25 kg was taken. The subsamples were placed in plastic bags, sealed, cooled, and shipped immediately to Agsource Soil and Forage Laboratory, 106 North Cecil Street, Bonduel Wis. 54107, USA for Near Infrared Reflectance Spectroscopy (NIRS) analysis.
Typically, samples for NIRS analysis are first dried at 55 to 65° C. for 24 h to 48 h prior to analysis. A representative subsample thereof is then dried at 105° C. for another 12 h to 24 h to evaluate the dry matter content of the samples. Subsequently, the remaining sample is grinded and homogenized and again a representative subsample is used for the NIRS analysis. The NIRS analysis procedure uses a commercially available calibration to estimate the values for each quality parameter based on the spectral reflectance information gained. […]

[3] = test system: corn; assay: Corn silage strip trials New York 2006: NIRS forage quality and MILK 2006 calculated milk production; conditions: New York 2006, pyraclostrobin vs untreated
Method: as §1, §2, §3

[4] = test system: corn; assay: Corn silage strip trials Maryland 2006: NIRS forage quality and MILK 2006 calculated milk production
Method: as §1, §2, §4
Typically, samples for NIRS analysis are first dried at 55 to 65° C. for 24 h to 48 h prior to analysis. A representative subsample thereof is then dried at 105° C. for another 12 h to 24 h to evaluate the dry matter content of the samples. Subsequently, the remaining sample is grinded and homogenized and again a representative subsample is used for the NIRS analysis. The NIRS analysis procedure uses a commercially available calibration to estimate the values for each quality parameter based on the spectral reflectance information gained. The calibrations are based on the near infra red reflectance spectra of samples with known quality data. The comparison of the spectra of the samples with unknown quality data with the spectra of the known samples allows calculating estimates for each quality parameter of interest.
NIRS analysis provided dry matter, crude protein, Acid Detergent Fibre (ADF), Neutral Detergent Fibre (NDF), and starch data. Calculations were included for moisture, adjusted crude protein, Total Digestible Nutrients (TDN), Net Energy for Lactation (NEL), Net Energy for Gain (NEG) and protein solubility.
The information was then entered into the MILK 2006 University of Wisconsin Corn Silage evaluation system. Calculations of the milk production, energy content and digestibility per ton of corn biomass were carried out using a calculation method described in:
a) Schwab, E. C., and R. D. Shaver. 2001: “Evaluation of corn silage nutritive value using MILK2000” (pages 21-24) in Proc. of 25th Forage Production and Use Symposium. WI Forage Council Annual Mtg. Eau Claire, Wis.
b) Schwab, E. C., R. D. Shaver. J. G. Lauer, and J. G. Coors. 2003: “Estimating silage energy value and milk yield to rank corn hybrids”. J. Anim. Feed Sci. Technol. 109: 1-18. as well as in
c) Undersander, D. J., W. T. Howard, and R. D. Shaver. 1993: “Milk per acre spreadsheet for combining yield and quality into a single term”. J. Prod. Ag. 6: 231 235.
In 2006 a total of 16 strip trials were conducted in Queen Ann County, Md. Trial setup, treatments, application, harvesting, sampling and quality analysis including calculation of milk production per ton and per acre followed the procedure described before.

[5] = Wisconsin 2006, pyraclostrobin vs untreated
[6] = Maryland 2006, pyraclostrobin vs untreated

**Q.** For `COC(=O)N(OC)c1ccccc1COc1ccn(-c2ccc(Cl)cc2)n1` [Pyraclostrobin, pyraclostrobin], which “Calculated milk production, Milk (kg/t)” value ([1]; Example 4.6, hybrid DS93VT3, Wisconsin 2008) is on record?
**A.** The value was 1600 kg/t.

**Q.** And the “milk production per ton of harvested corn biomass used to produce silage” value ([1]; across the eight tested different corn hybrids, result in words)?
**A.** The value was “improves the milk production”.

**Q.** And the “crude protein content (% CP)” value ([2]; Wisconsin 2006, average of 7 strip trials, 110 g pyraclostrobin per ha)?
**A.** Its value is 7.5%.

**Q.** And the “% CP, % Difference to Untreated” value [2, 5]?
**A.** Its value is “+4.2%”.

**Q.** What about the “Milk (kg/t), % Difference to Untreated” value [2, 5] of the same compound?
**A.** Its value is “+14.0%”.

**Q.** What about the “% CP, % Difference to Untreated” value [3] of the same compound?
**A.** The value was “+6.0%”.

**Q.** And the “% Dry Matter, % Difference to Untreated” value [3]?
**A.** The value was −2.2%.

**Q.** And the “total digestible nutrients as percent of dry matter (TDN % of DM)” value ([4]; Maryland 2006, average of 16 strip trials, 110 g pyraclostrobin per ha)?
**A.** The value was 70.0 % of DM.

**Q.** What about the “crude protein content (% CP)” value ([4]; Maryland 2006, average of 16 strip trials, Headline at tassel emergence, 110 g pyraclostrobin per ha) of the same compound?
**A.** Its value is 7.1%.

**Q.** What about the “% CP, % Difference to Untreated” value [4, 6] of the same compound?
**A.** Its value is “+6.0%”.

**Q.** What about the “% NDF, % Difference to Untreated” value [4, 6] of the same compound?
**A.** The value was −4.8%.

**Q.** And the “% NDFD, % Difference to Untreated” value [4, 6]?
**A.** Its value is “+3.9%”.

**Q.** What about the “Milk (kg/t), % Difference to Untreated” value [4, 6] of the same compound?
**A.** The value was “+5.9%”.

**Q.** What about the “TDN % of DM, % Difference to Untreated” value [4, 6] of the same compound?
**A.** Its value is “+3.6%”.
